Measured values reported in ChEMBL document CHEMBL1158250, “(all trans)-2,4,6,8,10,12-tetradecahexene-1,14-dial, a new pigment from Conidiobolus paulus” (J Nat Prod, 1996).

Experiments:
[1] = Toxicity in chick embryo up to 100 ug; set-up: species or system Gallus gallus; conditions: chicken
[2] = tested on: Bacillus cereus; experiment: Antibacterial activity against Bacillus cereus B-3705 after 24 hrs by antibiotic disk assay; format: functional
[3] = tested on: Escherichia coli; experiment: Antibacterial activity against Escherichia coli B-3704 after 24 hrs by antibiotic disk assay; format: functional

SMILES: O=C/C=C/C=C/C=C/C=C/C=C/C=C/C=O
- Activity [1]: Non-toxic
- MIC [2]: 10 µg
- MIC [3]: 50 µg
